In the assay the target is T1, GST-human receptor interacting protein kinase 1 fusion (8-327) enzyme (Homo sapiens, UniProt Q13546).
T1 sequence (Q13546 8-327): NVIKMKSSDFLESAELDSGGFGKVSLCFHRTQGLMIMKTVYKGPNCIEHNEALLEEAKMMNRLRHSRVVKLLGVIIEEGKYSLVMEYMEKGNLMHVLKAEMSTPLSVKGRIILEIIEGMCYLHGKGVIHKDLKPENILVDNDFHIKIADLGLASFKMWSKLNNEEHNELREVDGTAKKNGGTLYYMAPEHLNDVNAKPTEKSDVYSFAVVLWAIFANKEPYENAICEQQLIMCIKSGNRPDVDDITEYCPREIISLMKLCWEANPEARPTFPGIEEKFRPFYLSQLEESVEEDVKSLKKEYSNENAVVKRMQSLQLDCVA
The assay can be described thus: Fluorescent Polarization Binding (FP Binding) assay, receptor interacting protein kinase 1. The conditions noted are these: 10 nM enzyme, 5 nM fluorescent-labeled ligand, RT 30 min, mean of a minimum of two independent experiments. The procedure: Fluorescent Polarization Binding (FP Binding) assay (Berger S. B. et al. (2015) Cell Death Discovery, 1: 15009; Maki J. L. et al. (2012) Anal Biochem., 427(2): 164-174) was performed in polystyrene low volume 384-well black plate, at Room Temperature (RT) in a final volume of 10.1 μL/well using 10 nM of GST-human receptor interacting protein kinase 1 fusion (8-327) enzyme and 5 nM of fluorescent-labeled ligand (14-(2-{[3-({2-{[4-(cyanomethyl)phenyl]amino}-6-[(5-cyclopropyl-1H-pyrazol-3-yl)amino]-4-pyrimidinyl}amino) propyl]amino}-2-oxoethyl)-16,16,18,18-tetramethyl-6,7,7a,8a,9,10,16,18-octahydrobenzo[2″,3″]indolizino[8″,7″:5′,6′]pyrano[3′,2′:3,4]pyrido[1,2-a]indol-5-ium-2-sulfonate.
Test compounds were serially diluted in DMSO at 100 fold final concentrations in the assay (1% DMSO final). In each well of a 384-well Plate were dispensed 0.1 μL of compound solution (or DMSO for controls) followed by 5 μL of GST-human receptor interacting protein kinase 1 fusion (8-327) enzyme at twice the final concentrations in assay buffer (50 mM HEPES pH 7.5, 10 mM NaCl, 50 mM MgCl2, 0.02% CHAPS, 0.5 mM DTT and 0.01% Pluronic F127). For negative control the enzyme addition was replaced by assay buffer only.
After addition of 5 μL of fluorescent-labeled ligand at twice the final concentrations in assay buffer, the plate was incubated at RT for 30 min. At the end, the binding was measured as FP value with the Envision (PerkinElmer) plate reader using filter for an excitation λ=531 nm FP and an emission λ=595 nm FP (S & P-pol).
Test compound inhibition was expressed as percent inhibition of internal assay controls. For concentration response curves, normalized data is fit and IC50 determined using XL-fit (IDBS) for Excel. IC50 were averaged to determine a mean value, for a minimum of two independent experiments.
Receptor interacting protein kinase 1 activity of exemplary compounds was determined according to the above general procedures.

Experimental findings from patent US11072618B2, “Compounds, compositions and methods” (Denali Therapeutics Inc., priority 2016, dated 2021) are described below.

A word on the IC50: it is the concentration that gives 50% inhibition. Lower therefore signals inhibition by little substance.

`CCC1(C(F)F)CN2CCC(c3cccc(F)c3)N2C1=O` (centres unmarked) [Compound 20] showed an IC50 of less than 1 µM.
For `CCC1(C(F)F)CN2CCC(c3cc(F)cc(C#N)c3)N2C1=O` (centres unmarked) [Compound 31] the value was less than 1 µM; for `CCC1(C(F)F)CN2CCC(c3cncc(F)c3)N2C1=O` (centres unmarked) [Compound 33], less than 1 µM; for `CC1(C(F)F)CN2CCC(c3cncc(C#N)c3)N2C1=O` (single isomer, unassigned) [Compound 39], less than 1 µM.
In the case of `CC1(CC2CC2)CN2CCC(c3cc(F)cc(C#N)c3)N2C1=O` (centres unmarked) [Compound 35], the IC50 is less than 1 µM.
For `CC1(C(F)F)CN2CCC(c3cncc(F)c3)N2C1=O` (single isomer, unassigned) [Compound 45] the value was less than 1 µM.
For `O=C1N2C(c3cncc(F)c3)CCN2CC1(CC1CC1)C(F)F` (centres unmarked) [Compound 53] the value was 1 to 30 µM; for `CC1(C(F)F)CN2CCC(c3cc(F)cc(C#N)c3)N2C1=O` (centres unmarked) [Compound 41], 1 to 30 µM.
With `CC1(C)CN2CCC(c3cc(F)cc(C#N)c3)N2C1=O` (centres unmarked) [Compound 5] the figure was less than 1 µM.
As to `O=C1N2C(c3cncc(F)c3)CCN2CC1(CC1CC1)C(F)F` (centres unmarked) [Compound 52], the IC50 is less than 1 µM.
With `CCC1(C)CN2CCC(c3cc(F)cc(F)c3)N2C1=O` (single isomer, unassigned) [Compound 22] the figure was less than 1 µM.
With `CC1(C)CC2(CN3CCC(c4cccc(F)c4)N3C2=O)C1` (centres unmarked) [Compound 12] the figure was less than 1 µM; with `CCC1(C)CN2CCC(c3cncc(F)c3)N2C1=O` (centres unmarked) [Compound 25], less than 1 µM.
With `CC(F)(F)C1(C)CN2CCC(c3cncc(C#N)c3)N2C1=O` (single isomer, unassigned) [Compound 36] the figure was 1 to 30 µM.
`CC1(C)CN2CCC(c3cccc(F)c3)N2C1=O` (single isomer, unassigned) [Compound 3] came in with an IC50 of less than 1 µM.
`CC(F)(F)C1(C)CN2CCC(c3cncc(C#N)c3)N2C1=O` (centres unmarked) [Compound 37] yielded an IC50 of less than 1 µM.
With `CCC1(C)CN2CCC(c3cc(F)cc(F)c3)N2C1=O` (centres unmarked) [Compound 21] the figure was less than 1 µM; with `CC1(C)CN2CCC(c3ccc(F)c(F)c3)N2C1=O` (centres unmarked) [Compound 9], 1 to 30 µM.
For `CC1(C)CCN2CCC(c3ccccc3)N2C1=O` (centres unmarked) [Compound 8] the value was 1 to 30 µM; for `CC1(C(F)F)CN2CCC(c3cc(F)cc(C#N)c3)N2C1=O` (centres unmarked) [Compound 40], less than 1 µM; for `CC1(C)CN2CC[C@@H](c3ccccc3)N2C1=O` [Compound 1], less than 1 µM.
In the case of `CCC1(C(F)F)CN2CCC(c3cncc(F)c3)N2C1=O` (centres unmarked) [Compound 34], the IC50 was in the range of 1 to 30 µM.
For `CC1(C)CN2CCC(c3cccc(C#N)c3)N2C1=O` (centres unmarked) [Compound 4] the value was 1 to 30 µM.
With `CC1(CC(F)(F)F)CN2CCC(c3cncc(F)c3)N2C1=O` (centres unmarked) [Compound 51] the figure was 1 to 30 µM.
For `CCC1(C(F)F)CN2CCC(c3cncc(Br)c3)N2C1=O` (centres unmarked) [Compound 18] the value was less than 1 µM; for `CC1(CC(F)F)CN2CCC(c3cccc(F)c3)N2C1=O` (centres unmarked) [Compound 27], less than 1 µM.
Compound `CCCC1(C)CN2CCC(c3cccc(F)c3)N2C1=O` (centres unmarked) [Compound 15] had an IC50 of 1 to 30 µM.
`CC(F)(F)C1(C)CN2CCC(c3cccc(F)c3)N2C1=O` (centres unmarked) [Compound 13] had an IC50 of less than 1 µM.
With `CCC1(C)CN2CCC(c3cc(F)cc(C#N)c3)N2C1=O` (centres unmarked) [Compound 23] the figure was less than 1 µM; with `CCCC1(C(F)F)CN2CCC(c3cncc(C#N)c3)N2C1=O` (centres unmarked) [Compound 54], less than 1 µM.
For `CCC1(C(F)F)CN2CCC(c3cncc(C#N)c3)N2C1=O` (centres unmarked) [Compound 19] the value was less than 1 µM; for `CCC1(CF)CN2CCC(c3cccc(F)c3)N2C1=O` (centres unmarked) [Compound 30], less than 1 µM.
For `C=CCC1(C)CN2CCC(c3cccc(F)c3)N2C1=O` (centres unmarked) [Compound 14] the value was less than 1 µM; for `CCC1(CCl)CN2CCC(c3cccc(F)c3)N2C1=O` (centres unmarked) [Compound 29], less than 1 µM.
The compound `CCC1(C)CN2CCC(c3cncc(F)c3)N2C1=O` (centres unmarked) [Compound 26] showed an IC50 of 1 to 30 µM.
On to `CCC1(CC)CN2CCC(c3ccc(F)cc3)N2C1=O` (centres unmarked) [Compound 2], for which the IC50 lay in the range of 1 to 30 µM.
With `CCCC1(C)CN2CCC(c3cccc(F)c3)N2C1=O` (centres unmarked) [Compound 16] the figure was less than 1 µM.
With `CC1(CC#N)CN2CCC(c3cccc(F)c3)N2C1=O` (centres unmarked) [Compound 28] the figure was less than 1 µM; with `O=C1N2C(c3cncc(F)c3)CCN2CC1(CC(F)(F)F)C(F)F` (centres unmarked) [Compound 48], 1 to 30 µM.
The compound `CC(F)(F)C1(C)CN2CCC(c3cc(F)cc(C#N)c3)N2C1=O` (centres unmarked) [Compound 43] gave an IC50 of 1 to 30 µM.
For `CC(F)(F)C1(C)CN2CCC(c3cc(F)cc(C#N)c3)N2C1=O` (centres unmarked) [Compound 42] the value was less than 1 µM; for `CC1(CC2CC2)CN2CCC(c3cccc(F)c3)N2C1=O` (centres unmarked) [Compound 17], less than 1 µM; for `CC(F)(F)C1(C)CN2CCC(c3cncc(F)c3)N2C1=O` (centres unmarked) [Compound 47], less than 1 µM.
With `CCC1(C(F)F)C[C@@H]2CCC(c3cccc(F)c3)N2C1=O` (single isomer, unassigned) [Compound 57] the figure was less than 1 µM; with `CC1(CC(F)(F)F)CN2CCC(c3cncc(F)c3)N2C1=O` (centres unmarked) [Compound 50], less than 1 µM.
`CCC1(C(F)F)C[C@H]2CCC(c3cccc(F)c3)N2C1=O` (single isomer, unassigned) [Compound 55] registered an IC50 of less than 1 µM.
The compound `CC(F)(F)C1(C)CN2CCC(c3cncc(F)c3)N2C1=O` (centres unmarked) [Compound 46] displayed an IC50 of 1 to 30 µM.
For `CC1(C(F)F)CN2CCC(c3cncc(C#N)c3)N2C1=O` (single isomer, unassigned) [Compound 38] the value was 1 to 30 µM.
With `CCC1(C)CN2CCC(c3ccc(F)c(F)c3)N2C1=O` (centres unmarked) [Compound 10] the figure was less than 1 µM; with `CCC1(C)CN2CCC(c3cccc(F)c3)N2C1=O` (centres unmarked) [Compound 7], less than 1 µM.
